19 compounds from patent publication US10219516B2, “Molecules having pesticidal utility, and intermediates, compositions, and processes, related thereto” (priority 2015, dated 2019) can be followed below.

Read-outs that look alike come from different tables or passages of the source.

What all share (assay type): in vivo
In test [1] the test system is Beet Armyworm (Spodoptera exigua, LAPHEG). Nature of the test: Bioassay on Beet Armyworm (BAW), 128-well diet tray assay. In a few lines:
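Artificial diet surface-treated with 50 μg/cm^2 test molecule in 90:10 acetone-water, dried, then infested with one to five second instar larvae per well. Held covered and vented at 25° C., 14:10 light-dark for five to seven days; percent mortality recorded per well and averaged over eight wells.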

The subject of test [2] is Cabbage Looper (Trichoplusia ni, TRIPNI). Nature of the test: Bioassay on Cabbage Looper (CL), 128-well diet tray assay. The settings on record: Trichoplusia ni. In a few lines: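 Mortality of second instar larvae exposed to diet coated with 50 μg/cm^2 compound (acetone-water 90:10 vehicle, dried); 25° C., 5–7 days.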
The test system of test [3] is Yellow Fever Mosquito (Aedes aegypti, AEDSAE). Nature of the test: Bioassay on Yellow Fever Mosquito (YFM), 96-well plate larval assay. The settings on record: for YFM rating: Yellow Fever Mosquito, 96-well plate larval assay; for YFM (Biological Results, rating): Species YFM (Yellow Fever Mosquito). In a few lines:
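Aedes aegypti larvae (about 1 day old) in liver-powder water were added to plates dispensed from DMSO master plates (4000 ppm stock) diluted with 90:10 water/acetone; six replicate plates per master. Lidded plates were held at room temperature for 3 days, then each well was scored for mortality.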

Setting [4] is: Beet Armyworm, 128-well diet tray assay, read-out: BAW rating.
The mark [5] stands for this setting: Cabbage Looper, 128-well diet tray assay, read-out: CL rating.
[6] abbreviates: Species BAW (Beet Armyworm), read-out: BAW (Biological Results, rating).
Setting [7] is: Species CL (Cabbage Looper), read-out: CL (Biological Results, rating).

As for `Nc1cc(F)cc(F)c1NC(=O)c1cc(NC(=O)[C@H]2[C@H](c3ccc(Cl)c(Cl)c3)C2(Cl)Cl)ccc1Cl` [F407, N-(2-amino-4,6-difluorophenyl)-2-chloro-5-((1R,3R)-2,2-dichloro-3-(3,4-dichlorophenyl)cyclopropane-1-carboxamido)benzamide], the pest or weed control at 50 µg/cm2 in test [1] (setting [4]) and in test [2] (setting [5]) was 50 to 100% throughout. Besides, in test [3], the YFM rating result is “A (80-100)”.

Consider `CNc1ccc(NC(=O)c2cc(NC(=O)[C@H]3[C@H](c4cc(Cl)cc(Cl)c4)C3(Cl)Cl)ccc2Cl)c(F)c1` (relative stereo) [F177, trans-2-Chloro-5-(2,2-dichloro-3-(3,5-dichlorophenyl)cyclopropane-1-carboxamido)-N-(2-fluoro-4-(methylamino)phenyl)benzamide], for which the pest or weed control at 50 µg/cm2 in test [1] (setting [6]) and in test [2] (setting [7]) was 50 to 100% throughout. Also, the “YFM (Biological Results, rating)” value in test [3] is “A (80-100)”.

In the case of `CN(C(=O)c1cc(NC(=O)[C@H]2[C@H](c3cc(Cl)c(Cl)c(Cl)c3)C2(Cl)Cl)ccc1F)c1ccc(F)cc1F` (relative stereo) [F65, trans-5-(2,2-Dichloro-3-(3,4,5-trichlorophenyl)cyclopropane-1-carboxamido)-N-(2,4-difluorophenyl)-2-fluoro-N-methylbenzamide], the pest or weed control at 50 µg/cm2 in test [1] (setting [6]) and in test [2] (setting [7]) was 50 to 100% in each case. In addition, the “YFM (Biological Results, rating)” value in test [3] was “A (80-100)”.

Turning to `Nc1cc(F)cc(F)c1NC(=O)c1cc(NC(=O)[C@H]2[C@H](c3cc(Cl)cc(Cl)c3)C2(Cl)Cl)ccc1Cl` [F406, N-(2-Amino-4,6-difluorophenyl)-2-chloro-5-((1R,3R)-2,2-dichloro-3-(3,5-dichlorophenyl)cyclopropane-1-carboxamido)benzamide], the pest or weed control at 50 µg/cm2 in test [1] (setting [4]) and in test [2] (setting [5]) was 50 to 100% throughout. Moreover, the YFM rating result in test [3] is “A (80-100)”.

Take `CNc1ccc(NC(=O)c2cc(NC(=O)[C@H]3[C@H](c4cc(Cl)cc(Cl)c4)C3(Cl)Cl)ccc2Cl)cc1F` (relative stereo) [F176, trans-2-Chloro-5-(2,2-dichloro-3-(3,5-dichlorophenyl)cyclopropane-1-carboxamido)-N-(3-fluoro-4-(methylamino)phenyl)benzamide]: the pest or weed control at 50 µg/cm2 in test [1] (setting [6]) and in test [2] (setting [7]) was 50 to 100% throughout. In addition, the “YFM (Biological Results, rating)” value in test [3] is listed as “A (80-100)”.

In the case of `O=C(Nc1ccc(F)cc1F)c1cc(NC(=O)[C@H]2[C@H](c3ccc(Br)c(Br)c3)C2(Cl)Cl)ccc1Cl` (relative stereo) [F532, 2-Chloro-5-(trans)-(2,2-dichloro-3-(3,4-dibromophenyl)cyclopropane-1-carboxamido)-N-(2,4-difluorophenyl)benzamide], the pest or weed control at 50 µg/cm2 in test [1] (setting [4]) and in test [2] (setting [5]) was 50 to 100% each time. Besides, the YFM rating entry in test [3] was “A (80-100)”.

Take `CNc1cc(NC(=O)c2cc(NC(=O)[C@H]3[C@H](c4cc(Cl)cc(Cl)c4)C3(Cl)Cl)ccc2Cl)ccc1OC` (relative stereo) [F200, trans-2-Chloro-5-(2,2-dichloro-3-(3,5-dichlorophenyl)cyclopropane-1-carboxamido)-N-(4-methoxy-3-(methylamino)phenyl)benzamide]: the pest or weed control at 50 µg/cm2 in test [1] (setting [6]) and in test [2] (setting [7]) was 50 to 100% in each case. Further, the “YFM (Biological Results, rating)” value in test [3] is given as “B (More than 0-Less than 80)”.

In the case of `O=C1Cc2cc(NC(=O)c3cc(NC(=O)[C@H]4[C@H](c5cc(Cl)cc(Cl)c5)C4(Cl)Cl)ccc3Cl)ccc2N1` (relative stereo) [F472, 2-Chloro-5-(trans)-(2,2-dichloro-3-(3,5-dichlorophenyl)cyclopropane-1-carboxamido)-N-(2-oxoindolin-5-yl)benzamide], the pest or weed control at 50 µg/cm2 in test [1] (setting [4]) and in test [2] (setting [5]) was 50 to 100% throughout. For the same compound, the YFM rating result in test [3] was “A (80-100)”.

As for `O=C(Nc1ccc(F)cc1F)c1cc(NC(=O)[C@H]2[C@H](c3ccc(F)c(C(F)(F)F)c3)C2(Cl)Cl)ccc1Cl` (relative stereo) [F376, 2-Chloro-5-(trans)-(2,2-dichloro-3-(4-fluoro-3-(trifluoromethyl)phenyl)cyclopropane-1-carboxamido)-N-(2,4-difluorophenyl)benzamide], the pest or weed control at 50 µg/cm2 in test [1] (setting [4]) and in test [2] (setting [5]) was 50 to 100% throughout. Also, the YFM rating entry in test [3] is given as “A (80-100)”.

Turning to `N#Cc1cc(F)ccc1NC(=O)c1cc(NC(=O)[C@H]2[C@H](c3cccc(C(F)(F)F)c3)C2(Cl)Cl)ccc1Cl` (relative stereo) [F340, trans-2-Chloro-N-(2-cyano-4-fluorophenyl)-5-(2,2-dichloro-3-(3-(trifluoromethyl)phenyl)cyclopropane-1-carboxamido)benzamide], the pest or weed control at 50 µg/cm2 in test [1] (setting [6]) and in test [2] (setting [7]) was 50 to 100% throughout. In test [3], the “YFM (Biological Results, rating)” value is on record as “A (80-100)”.

As for `O=C(CC1CC1)Nc1ccc(NC(=O)c2cc(NC(=O)[C@H]3[C@H](c4cc(Cl)cc(Cl)c4)C3(Cl)Cl)ccc2Cl)cc1` (relative stereo) [PF163, trans-2-Chloro-N-(4-(2-cyclopropylacetamido)phenyl)-5-(2,2-dichloro-3-(3,5-dichlorophenyl)cyclopropane-1-carboxamido)benzamide], the pest or weed control at 50 µg/cm2 in test [1] (setting [4]) and in test [2] (setting [5]) was 50 to 100% in each case. In test [3], the YFM rating result is given as “A (80-100)”.

As for `Cc1cc(N)ccc1NC(=O)c1cccc(NC(=O)[C@H]2[C@H](c3cc(Cl)c(Cl)c(Cl)c3)C2(Cl)Cl)c1` (relative stereo) [F264, trans-N-(4-Amino-2-methylphenyl)-3-(2,2-dichloro-3-(3,4,5-trichlorophenyl)cyclopropane-1-carboxamido)benzamide], the pest or weed control at 50 µg/cm2 in test [1] (setting [6]) and in test [2] (setting [7]) was 50 to 100% in each case. For the same compound, the “YFM (Biological Results, rating)” value in test [3] is “A (80-100)”.

Turning to `COc1ccc(NC(=O)c2cc(NC(=O)[C@H]3[C@H](c4ccc(F)c(Cl)c4)C3(Cl)Cl)ccc2Cl)cn1` (relative stereo) [F551, 2-Chloro-5-(trans-2,2-dichloro-3-(3-chloro-4-fluorophenyl)cyclopropane-1-carboxamido)-N-(6-methoxypyridin-3-yl)benzamide], the pest or weed control at 50 µg/cm2 in test [1] (setting [4]) and in test [2] (setting [5]) was 50 to 100% in each case. The YFM rating result in test [3] is on record as “A (80-100)”.

Turning to `Nc1c(F)cnc(NC(=O)c2cc(NC(=O)[C@H]3[C@H](c4cc(Cl)cc(Cl)c4)C3(Cl)Cl)ccc2Cl)c1F` [F370, N-(4-Amino-3,5-difluoropyridin-2-yl)-2-chloro-5-((1R,3R)-2,2-dichloro-3-(3,5-dichlorophenyl)cyclopropane-1-carboxamido)benzamide], the pest or weed control at 50 µg/cm2 in test [1] (setting [6]) and in test [2] (setting [7]) was 50 to 100% throughout. Moreover, in test [3], the “YFM (Biological Results, rating)” value is given as “A (80-100)”.

For the compound `O=C(Nc1ccc(F)cc1)c1cc(NC(=O)C2C(c3cc(Cl)cc(Cl)c3)[C@@H]2Cl)ccc1Cl` (stereo partly drawn) [F212, 2-Chloro-5-((2S)-2-chloro-3-(3,5-dichlorophenyl)cyclopropane-1-carboxamido)-N-(4-fluorophenyl)benzamide], the pest or weed control at 50 µg/cm2 in test [1] (setting [6]) and in test [2] (setting [7]) was 50 to 100% each time. For the same compound, the “YFM (Biological Results, rating)” value in test [3] is on record as “A (80-100)”.

Take `O=C(Nc1ccc(Br)c(F)n1)c1cc(NC(=O)[C@H]2[C@H](c3cc(Cl)cc(Cl)c3)C2(Cl)Cl)ccc1Cl` (relative stereo) [F357, N-(5-Bromo-6-fluoropyridin-2-yl)-2-chloro-5-(trans-2,2-dichloro-3-(3,5-dichlorophenyl)cyclopropane-1-carboxamido)benzamide]: the pest or weed control at 50 µg/cm2 in test [1] (setting [6]) and in test [2] (setting [7]) was 50 to 100% throughout. In test [3], the “YFM (Biological Results, rating)” value is listed as “A (80-100)”.

On to `O=C(Nc1cc2[nH]ccc2cc1Br)c1cc(NC(=O)C2C(c3cc(Cl)cc(Cl)c3)C2(Cl)Cl)ccc1Cl` (stereo not drawn) [F172, N-(5-Bromo-1H-indol-6-yl)-2-chloro-5-(trans)-2,2-dichloro-3-(3,5-dichlorophenyl)cyclopropane-1-carboxamido)benzamide], for which the pest or weed control at 50 µg/cm2 in test [1] (setting [6]) and in test [2] (setting [7]) was 50 to 100% throughout. Also, in test [3], the “YFM (Biological Results, rating)” value is reported as “B (More than 0-Less than 80)”.

Take `O=C(Nc1ccc(F)cc1F)c1cc(NC(=O)[C@H]2[C@H](c3cc(Cl)cc(C(F)F)c3)C2(Cl)Cl)ccc1Cl` (relative stereo) [F558, 2-Chloro-5-(trans-2,2-dichloro-3-(3-chloro-5-(difluoromethyl)phenyl)cyclopropane-1-carboxamido)-N-(2,4-difluorophenyl)benzamide]: the pest or weed control at 50 µg/cm2 in test [1] (setting [4]) and in test [2] (setting [5]) was 50 to 100% throughout. For the same compound, the YFM rating entry in test [3] is recorded as “A (80-100)”.

With `C=C(F)c1cc(NC(=O)c2cc(NC(=O)[C@H]3[C@H](c4cc(Cl)cc(Cl)c4)C3(Cl)Cl)ccc2Cl)cnc1F` (relative stereo) [F400, 2-Chloro-5-(trans-2,2-dichloro-3-(3,5-dichlorophenyl)cyclopropane-1-carboxamido)-N-(6-fluoro-5-(1-fluorovinyl)pyridin-3-yl)benzamide], the pest or weed control at 50 µg/cm2 in test [1] (setting [4]) and in test [2] (setting [5]) was 50 to 100% throughout. Moreover, the YFM rating result in test [3] is listed as “A (80-100)”.
